Measured values published in patent US20240254508A1, “Multi-Genome Editor Construct and Uses Thereof” (Colossal Biosciences Inc., priority 2023, published 2024).

Experiments:
[1] = tested on: Super Editor incorporated HEK293T cells; assay: Editing enzyme induction in Super Editor incorporated HEK293T cells (fluorescent imaging / FACS); assay type: cell-based; conditions: 1/5/10 μg/mL doxycycline, 30/120/300 μg/mL cumate, 10/40/100 μM TMP, 0.25/1.25/6.25 μM Shield 1, 24-72 hours after treatment
Procedure: FIGS. 3A-3D show fluorescence-activated cell sorting (FACS) of individual editor induction by super editor integrated HEK293T cells. FACS analysis was done for doxycycline induced Cas9 expression (FIG. 3A), cumate induced ABE expression (FIG. 3B), trimethoprim induced CBE expression (FIG. 3C), and shield 1 induced CGBE expression (FIG. 3D). Cells were fixed 72 hours after treatment for FACS quantification. Bar graphs plotting the induction ratios of each dose curve are provided for each different genome editor enzyme induction (FIGS. 3A-3D).
Incorporation of Super Editor in HEK293T cells: 300,000 HEK293T cells were transfected by 4 μg of Super Editor plasmid and 3 μg PiggyBac transposase plasmid using 10 μL of Lipofectamine 2000 according to the manufacturer's protocol in a 6-well plate format. 2 μg/mL doxycycline was supplemented to the cells 48 hours in advance. The transfected cells were enriched twice by Fluorescence-activated cell sorting (FACS) gated with doxycycline induced TagRFP657 (far red) fluorescent signals 1 week and 3 weeks after transfection. The 1st enrichment selected the top 0.2% (10,000 cells) of the TagRFP657+ population. The 2nd enrichment selected the top 5% (374,000 cells) of the TagRFP657+ population.
Doxycycline induced Cas9, reported by TagRFP657 (far red); cumate induced ABE, reported by TagBFP (blue); trimethoprim induced CBE reported by, eGFP (green); Shield 1 induced CGBE, reported by mCherry (red). Cells were analyzed by fluorescent imaging or FACS 24-72 hours after treatment. FACS analysis was performed on 4% PFA fixed samples (FIGS. 3A-3D). Inducers were refreshed everyday with new media.

[2] = tested on: HEK293T cells; assay: Transient induction of single module plasmids in HEK293T cells; assay type: cell-based; conditions: 2 μg/ml doxycycline, 120 μg/ml cumate, 10 μM TMP, 6.25 μM shield 1
Procedure: HEK293T cells were transfected with the single module plasmids comprising the corresponding regulatory element. The HEK293T cells were treated with the corresponding inducers to generate expression of the genome editing enzyme along with the fluorescent marker accompanying each genome editing enzyme. HEK293T cells were transfected with a doxycycline inducible Cas9 editing enzyme, a cumate inducible ABE, a trimethoprim (TMP) inducible CBE, and a shield 1 inducible CGBE.

SMILES	induction of editing enzyme expression, reported by fluorescent protein [1]	expression of genome editing enzyme and fluorescent marker after inducer treatment [2]
CC[C@H](C(=O)N1CCCC[C@H]1C(=O)O[C@H](CCc1ccc(OC)c(OC)c1)c1cccc(OCCN2CCOCC2)c1)c1cc(OC)c(OC)c(OC)c1 [Shield 1]	induced CGBE	CGBE and mCherry were expressed
CC(C)c1ccc(C(=O)O)cc1 [cumate]	induced ABE	ABE and BFP were expressed
COc1cc(Cc2cnc(N)nc2N)cc(OC)c1OC [trimethoprim]	induced CBE	CBE and eGFP were expressed
